Test results taken from patent publication US10973857B2, “Mesenchymal stem cell and use thereof for treatment of muscle injury and muscle-associated diseases” (EXOSTEM BIOTEC LTD., priority 2016, dated 2021).

Test system: MSCs
Assay: Priming of MSCs to a stem cell phenotype (Protocols D and E)
Format: cell-based
Conditions: 24 hours, followed by media with a pH of about 6 for 1 hour or hypoxia for 24 hours (Protocol D)
Protocol: These incubations were also performed after first transfecting the MSCs with the modified Nanog mRNA.

Row | Compound | primed stem cell phenotype in MSCs
1 | C[C@@H](N)[C@H]1CC[C@H](C(=O)Nc2ccncc2)CC1 [Y-27632] | induced a primed stem cell phenotype

Same assay, conditions: incubation for 1-6 days (Protocol E)

Row | Compound | priming of MSCs
2 | N[C@@H]1C[C@H]1c1ccccc1 (racemic) [tranylcypromine] | primed the MSCs to a degree
3 | Nc1nccc2c1ncn2[C@@H]1C=C(CO)[C@@H](O)[C@H]1O [3-deazaneplanocin A] | primed the MSCs to a degree
4 | Cc1cccc(-c2nn(C(=S)Nc3ccccc3)cc2-c2ccnc3ccccc23)n1 [A83-01] | primed the MSCs to a degree
5 | Cc1c[nH]c(-c2cnc(NCCNc3ccc(C#N)cn3)nc2-c2ccc(Cl)cc2Cl)n1 [CHIR99021] | primed the MSCs to a degree
6 | [Cl-].[Li+] [LiCl] | primed the MSCs to a degree
7 | CC(C)n1nc(-c2cc3cc(O)ccc3[nH]2)c2c(N)ncnc21 [PP242] | primed the MSCs to a degree
8 | Cc1cccc(-c2[nH]ncc2-c2ccc3ncccc3n2)n1 [RepSox] | primed the MSCs to a degree
9 | NC(=O)c1ccc(-c2nc(-c3ccc4c(c3)OCO4)c(-c3ccccn3)[nH]2)cc1 [SB431542] | primed the MSCs to a degree
10 | O=C(NCc1ccccc1)c1csc(Nc2ccncn2)n1 [Thiazovivin] | primed the MSCs to a degree
11 | O=c1c(O)c(-c2ccc(O)c(O)c2)oc2cc(O)ccc12 [fistein] | primed the MSCs to a degree
12 | CN(C)C(=N)N=C(N)N [metformin] | primed the MSCs to a degree
13 | Oc1ccc(C=Cc2cc(O)cc(O)c2)cc1 [resveratrol] | primed the MSCs to a degree
14 | CCCC(CCC)C(=O)O [valporic acid] | primed the MSCs to a degree

Test system: MSCs
Assay: Protocol 3 differentiation of MSCs to hybrid cells with growth factors
Format: cell-based
Conditions: individually and in combination, as replacements or in combination with HGF and PDGF
Protocol: A shortened third protocol (Protocol 3) was examined and was also found to produce MSC-muscle cell hybrid cells. The MSCs were cultured in normal MSC culturing conditions followed by supplementation of the media for 24 hours with 5-AZA. The cells were than grown in media supplemented with 2% horse serum and HGF and PDGF for 2 weeks. […] The following growth factors were tested both individually and in combination as replacements or in combination with HGF and PDGF: EGF, IGF1, PDGFAA, PDGFBB, and VEGF. […] Additionally, the protocol could be halted by moving the treated MSCs to non-supplemented MSC media. Hybrid cells that were produced could thus be halted from further differentiation.
All three protocols were also performed with MSCs that had first undergone myogenic priming as described above.

Row | Compound | production of hybrid cells from MSCs
15 | IGF1: growth factor | found to produce hybrid cells
16 | PDGFAA: growth factor | found to produce hybrid cells
17 | VEGF | found to produce hybrid cells

Test system: MyoD
Assay: Myogenic priming of MSCs, MyoD-GFP reporter
Format: cell-based, human
Conditions: Nanog mRNA transfection prior to co-culture (Protocol B); one day incubation with 5-AZA (Protocol C)
From the text: In light of the ability of MSCs to induce muscle regeneration, reduce muscle fibrosis and increase engraftment via paracrine effects, a method of supplementing the therapeutic effect of MSCs was developed. This method, called “myogenic priming”, increased the cell's paracrine effects on muscle cells on the one hand and promoted the MSC's own differentiation to muscle cells on the other. This priming increased the ability of MSCs to differentiate into satellite cells that undergo asymmetric division and to myoblasts that fuse with existing muscle fibers and deliver dystrophin to the cells. It was hypothesized that inducing MyoD expression in the cells would be one method of priming. This was tested by culturing CH- and UC-MSCs containing a MyoD-GFP reporter, in trans-well plates with human muscle cells (Protocol A). In this way, the extracellular vesicles and secreted factors from the muscle cells were able to contact the MSCs. A 3-day incubation resulting in a greater than 2-fold increase in MyoD expression as compared to control cells that had not be exposed to muscle cells (FIG. 3).
In addition to co-cultures with muscle cells, various methods were employed that would induced transient stem cell characteristics in MSCs to increase their muscle differentiation abilities in response to subsequent factors. […]

Row | Compound | myoD expression
18 | Nc1ncn([C@@H]2O[C@H](CO)[C@@H](O)[C@H]2O)c(=O)n1 [5-azacytidine] | increased
